Assay results from PubChem BioAssay (NCI).
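Growth conditions: 96-well plates. Treatment: test compound, 48 hours, 5 concentrations. Analysis: linear interpolation between bracketing concentrations; unreached endpoints set to highest concentration. Here, GI50 denotes the concentration required for 50% inhibition of growth. TGI denotes the concentration required for complete inhibition of growth.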

Tests used:
Assay in all cases: inhibition of tumour cell growth, NCI panel, 48 h
SF-295 CNS = test system: SF-295 CNS
HOP-62 NSCLC = test system: HOP-62 NSCLC
SF-268 CNS = test system: SF-268 CNS
OVCAR-4 ovarian = test system: OVCAR-4 ovarian
A498 renal = test system: A498 renal
CCRF-CEM leukemia = test system: CCRF-CEM leukemia
MOLT-4 leukemia = test system: MOLT-4 leukemia
HS 578T breast = test system: HS 578T breast
SW-620 colon = test system: SW-620 colon
SNB-75 CNS = test system: SNB-75 CNS

COc1cc(C2c3cc4c(cc3C3OC(=O)C2C3CO)OCO4)cc(OC)c1OC (stereo not given)
GI50 (SF-295 CNS): 0.0182 µM
TGI (SF-295 CNS): 0.166 µM
GI50 (HOP-62 NSCLC): 0.0339 µM
TGI (HOP-62 NSCLC): > 100 µM
GI50 (SF-268 CNS): 0.0395 µM
TGI (SF-268 CNS): > 100 µM
GI50 (OVCAR-4 ovarian): 0.0446 µM
TGI (OVCAR-4 ovarian): > 100 µM
GI50 (A498 renal): < 0.01 µM
TGI (A498 renal): 0.0605 µM
GI50 (CCRF-CEM leukemia): 0.0271 µM
TGI (CCRF-CEM leukemia): > 100 µM
GI50 (MOLT-4 leukemia): 0.0385 µM
TGI (MOLT-4 leukemia): > 100 µM
GI50 (HS 578T breast): 0.043 µM
TGI (HS 578T breast): > 100 µM
GI50 (SW-620 colon): 0.0244 µM
TGI (SW-620 colon): > 100 µM
GI50 (SNB-75 CNS): 0.0415 µM
TGI (SNB-75 CNS): > 100 µM

COc1ccc(N2CCN(CC(=O)N3CCN(c4nnc(-c5ccccc5)c(-c5ccccc5)n4)CC3)CC2)cc1
GI50 (SF-295 CNS): 4.15 µM
TGI (SF-295 CNS): > 100 µM
GI50 (HOP-62 NSCLC): > 67.4 µM
TGI (HOP-62 NSCLC): > 100 µM
GI50 (SF-268 CNS): 9.16 µM
TGI (SF-268 CNS): > 100 µM
GI50 (OVCAR-4 ovarian): 3.61 µM
TGI (OVCAR-4 ovarian): > 100 µM
GI50 (A498 renal): 3.35 µM
TGI (A498 renal): 85.6 µM
GI50 (CCRF-CEM leukemia): 6.61 µM
TGI (CCRF-CEM leukemia): > 100 µM
GI50 (MOLT-4 leukemia): 4.79 µM
TGI (MOLT-4 leukemia): > 71 µM
GI50 (HS 578T breast): 9.46 µM
TGI (HS 578T breast): > 100 µM
GI50 (SW-620 colon): 10.4 µM
TGI (SW-620 colon): > 100 µM
GI50 (SNB-75 CNS): 7.63 µM
TGI (SNB-75 CNS): > 100 µM

CC(=O)OCCC/C(=C\c1ccc2ccccc2c1)[N+](=O)[O-]
GI50 (SF-295 CNS): 1.96 µM
TGI (SF-295 CNS): 4.55 µM
GI50 (HOP-62 NSCLC): 2 µM
TGI (HOP-62 NSCLC): 4.09 µM
GI50 (SF-268 CNS): 1.67 µM
TGI (SF-268 CNS): 3.43 µM
GI50 (OVCAR-4 ovarian): 1.76 µM
TGI (OVCAR-4 ovarian): 3.39 µM
GI50 (A498 renal): 1.04 µM
TGI (A498 renal): 2.39 µM
GI50 (CCRF-CEM leukemia): 2.19 µM
TGI (CCRF-CEM leukemia): 7.88 µM
GI50 (MOLT-4 leukemia): 4.87 µM
TGI (MOLT-4 leukemia): > 100 µM
GI50 (HS 578T breast): 1.09 µM
TGI (HS 578T breast): 5.19 µM
GI50 (SW-620 colon): 1.44 µM
TGI (SW-620 colon): 3.27 µM
GI50 (SNB-75 CNS): 1.45 µM
TGI (SNB-75 CNS): 2.99 µM

O=C(Cc1ccccc1)Nc1nnc(CCSCCc2nnc(NC(=O)Cc3ccccc3)s2)s1
GI50 (SF-295 CNS): 4.38 µM
TGI (SF-295 CNS): 36.6 µM
GI50 (HOP-62 NSCLC): 3.86 µM
TGI (HOP-62 NSCLC): 19.6 µM
GI50 (SF-268 CNS): 12.3 µM
TGI (SF-268 CNS): 62 µM
GI50 (OVCAR-4 ovarian): 3.96 µM
TGI (OVCAR-4 ovarian): 32.7 µM
GI50 (A498 renal): 0.696 µM
TGI (A498 renal): 31.9 µM
GI50 (CCRF-CEM leukemia): > 100 µM
TGI (CCRF-CEM leukemia): > 100 µM
GI50 (MOLT-4 leukemia): 23.8 µM
TGI (MOLT-4 leukemia): > 100 µM
GI50 (HS 578T breast): 1.93 µM
TGI (HS 578T breast): 79.9 µM
GI50 (SW-620 colon): > 100 µM
TGI (SW-620 colon): > 100 µM
GI50 (SNB-75 CNS): 5.18 µM
TGI (SNB-75 CNS): 24.3 µM

CC(=O)NNC(=O)c1nn(-c2ccc(Cl)cc2)cc1OC(C)=O
GI50 (SF-295 CNS): 15.9 µM
TGI (SF-295 CNS): > 100 µM
GI50 (HOP-62 NSCLC): 27.2 µM
TGI (HOP-62 NSCLC): > 100 µM
GI50 (SF-268 CNS): 8.85 µM
TGI (SF-268 CNS): > 71.3 µM
GI50 (OVCAR-4 ovarian): 79.6 µM
TGI (OVCAR-4 ovarian): > 100 µM
GI50 (A498 renal): 22.2 µM
TGI (A498 renal): 91.7 µM
GI50 (CCRF-CEM leukemia): 10.2 µM
TGI (CCRF-CEM leukemia): > 100 µM
GI50 (MOLT-4 leukemia): > 21 µM
TGI (MOLT-4 leukemia): > 100 µM
GI50 (HS 578T breast): 40 µM
TGI (HS 578T breast): > 100 µM
GI50 (SW-620 colon): 23.6 µM
TGI (SW-620 colon): > 100 µM
GI50 (SNB-75 CNS): > 66.5 µM
TGI (SNB-75 CNS): 99.7 µM

O=C1C2C(C(=O)[N]1[Hg][c]1ccccc1)C1(Cl)C(Cl)=C(Cl)C2(Cl)C1(Cl)Cl (stereo not given)
GI50 (SF-295 CNS): 12.4 µM
TGI (SF-295 CNS): 36 µM
GI50 (HOP-62 NSCLC): 6.21 µM
TGI (HOP-62 NSCLC): 19.2 µM
GI50 (SF-268 CNS): 1.64 µM
TGI (SF-268 CNS): 3.71 µM
GI50 (OVCAR-4 ovarian): 1.09 µM
TGI (OVCAR-4 ovarian): 4.15 µM
GI50 (A498 renal): 2.45 µM
TGI (A498 renal): 11.9 µM
GI50 (CCRF-CEM leukemia): 0.365 µM
TGI (CCRF-CEM leukemia): 10.4 µM
GI50 (MOLT-4 leukemia): 1.88 µM
TGI (MOLT-4 leukemia): 8.76 µM
GI50 (HS 578T breast): 0.771 µM
TGI (HS 578T breast): > 100 µM
GI50 (SW-620 colon): 0.464 µM
TGI (SW-620 colon): 1.8 µM
GI50 (SNB-75 CNS): 1.33 µM
TGI (SNB-75 CNS): 2.92 µM

OC(COc1ccc(Cl)cc1Cl)CN1CCCC1 (stereo not given)
TGI (SF-295 CNS): > 100 µM
TGI (HOP-62 NSCLC): > 100 µM
TGI (SF-268 CNS): > 100 µM
TGI (OVCAR-4 ovarian): > 100 µM
TGI (A498 renal): > 100 µM
TGI (CCRF-CEM leukemia): > 100 µM
TGI (MOLT-4 leukemia): > 100 µM
TGI (HS 578T breast): > 100 µM
TGI (SW-620 colon): > 100 µM
TGI (SNB-75 CNS): > 100 µM

COc1ccc(C(=O)Nc2ncc(Cc3ccc(F)cc3)s2)cc1
GI50 (SF-295 CNS): 0.0614 µM
TGI (SF-295 CNS): 2.03 µM
GI50 (HOP-62 NSCLC): 0.148 µM
TGI (HOP-62 NSCLC): > 56.5 µM
GI50 (SF-268 CNS): 0.481 µM
TGI (SF-268 CNS): > 100 µM
GI50 (OVCAR-4 ovarian): 1.38 µM
TGI (OVCAR-4 ovarian): > 100 µM
GI50 (A498 renal): 0.0204 µM
TGI (A498 renal): 0.0898 µM
GI50 (CCRF-CEM leukemia): 0.0446 µM
TGI (CCRF-CEM leukemia): > 100 µM
GI50 (MOLT-4 leukemia): 0.0574 µM
TGI (MOLT-4 leukemia): > 100 µM
GI50 (HS 578T breast): 0.052 µM
TGI (HS 578T breast): 34.6 µM
GI50 (SW-620 colon): 0.0449 µM
TGI (SW-620 colon): > 100 µM
GI50 (SNB-75 CNS): 0.036 µM
TGI (SNB-75 CNS): > 100 µM

NC(=O)Nc1ccc2ncnc(Nc3ccc(Cl)cc3)c2c1
GI50 (SF-295 CNS): 19.2 µM
TGI (SF-295 CNS): > 67.4 µM
GI50 (HOP-62 NSCLC): 26.7 µM
TGI (HOP-62 NSCLC): > 91.9 µM
GI50 (SF-268 CNS): 21.7 µM
TGI (SF-268 CNS): > 100 µM
GI50 (OVCAR-4 ovarian): 11.8 µM
TGI (OVCAR-4 ovarian): > 100 µM
GI50 (A498 renal): 0.896 µM
TGI (A498 renal): 16.2 µM
GI50 (CCRF-CEM leukemia): 20.3 µM
TGI (CCRF-CEM leukemia): > 100 µM
GI50 (MOLT-4 leukemia): 21.4 µM
TGI (MOLT-4 leukemia): 84.7 µM
GI50 (HS 578T breast): 17 µM
TGI (HS 578T breast): 66.4 µM
GI50 (SW-620 colon): 42.8 µM
TGI (SW-620 colon): > 100 µM
GI50 (SNB-75 CNS): 8 µM
TGI (SNB-75 CNS): 61 µM

CC12C=CC(C)(O1)C1C2c2ccccc2S1(=O)=O (stereo not given)
GI50 (SF-295 CNS): > 100 µM
TGI (SF-295 CNS): > 100 µM
GI50 (HOP-62 NSCLC): > 100 µM
TGI (HOP-62 NSCLC): > 100 µM
GI50 (SF-268 CNS): 68 µM
TGI (SF-268 CNS): > 100 µM
GI50 (OVCAR-4 ovarian): 31.6 µM
TGI (OVCAR-4 ovarian): > 100 µM
GI50 (A498 renal): > 100 µM
TGI (A498 renal): > 100 µM
GI50 (CCRF-CEM leukemia): 28.2 µM
TGI (CCRF-CEM leukemia): > 100 µM
GI50 (MOLT-4 leukemia): 62.7 µM
TGI (MOLT-4 leukemia): > 100 µM
GI50 (HS 578T breast): 46.2 µM
TGI (HS 578T breast): > 100 µM
GI50 (SW-620 colon): 39.9 µM
TGI (SW-620 colon): > 100 µM
GI50 (SNB-75 CNS): 23.2 µM
TGI (SNB-75 CNS): > 100 µM
